Entries after “also recorded” stand apart in the source; their conditions may differ. Where two headings read alike, the source gives them in different places.
Columns and labels:
human CB1 receptor = molecular target: T1, human CB1 receptor (Homo sapiens, UniProt P21554); assay: cell-based; conditions: for EC50: cAMP HTRF, transfected CHO cells, two replicate experiments, error = standard deviation
T1 construct: host or cells: CHO cells

[1] = molecular target: T2, human CB1 cannabinoid receptor (Homo sapiens, UniProt P21554); assay: biochemical; assay type: binding; conditions: for nH (Hill coefficient) / Top (% inhibition of control specific binding): SI; for nH (Hill coefficient): competition curve fit; for Top (% inhibition of control specific binding): four parameter curve fit
T2 construct: host or cells: Chem-1 cells
T2 sequence (P21554 whole entry): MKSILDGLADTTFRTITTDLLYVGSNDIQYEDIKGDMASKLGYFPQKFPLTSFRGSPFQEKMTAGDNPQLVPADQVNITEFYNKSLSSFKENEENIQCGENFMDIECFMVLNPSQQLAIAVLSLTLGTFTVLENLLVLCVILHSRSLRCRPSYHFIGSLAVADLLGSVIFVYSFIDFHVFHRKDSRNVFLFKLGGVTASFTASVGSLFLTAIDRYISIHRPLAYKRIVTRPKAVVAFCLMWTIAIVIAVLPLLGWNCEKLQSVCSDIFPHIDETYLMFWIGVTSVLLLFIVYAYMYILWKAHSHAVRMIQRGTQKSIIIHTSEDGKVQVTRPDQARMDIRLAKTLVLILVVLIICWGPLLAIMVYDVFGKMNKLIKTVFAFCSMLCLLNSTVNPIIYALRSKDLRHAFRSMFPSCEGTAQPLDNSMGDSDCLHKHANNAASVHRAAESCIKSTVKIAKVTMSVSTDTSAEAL

human CB2 receptor = molecular target: T3, human CB2 receptor (Homo sapiens, UniProt P34972); assay: cell-based; conditions: for EC50: cAMP HTRF, transfected CHO cells, two replicate experiments, error = standard deviation
T3 construct: host or cells: CHO cells
T3 sequence (P34972 whole entry): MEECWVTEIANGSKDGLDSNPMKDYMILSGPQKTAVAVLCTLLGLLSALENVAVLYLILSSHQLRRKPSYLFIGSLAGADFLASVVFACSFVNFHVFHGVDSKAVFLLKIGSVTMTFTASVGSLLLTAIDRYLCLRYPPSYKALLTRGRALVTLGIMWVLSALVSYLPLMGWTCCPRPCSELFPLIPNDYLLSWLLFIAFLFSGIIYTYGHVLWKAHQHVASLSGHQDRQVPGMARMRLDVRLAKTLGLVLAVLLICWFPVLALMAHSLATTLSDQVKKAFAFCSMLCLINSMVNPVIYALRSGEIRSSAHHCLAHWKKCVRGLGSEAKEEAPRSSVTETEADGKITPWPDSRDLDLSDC

[2] = molecular target: T4, human CB2 cannabinoid receptor (Homo sapiens, UniProt P34972); assay: biochemical; assay type: binding; conditions: for nH (Hill coefficient): competition curve fit; for Top (% inhibition of control specific binding): four parameter curve fit
T4 construct: host or cells: CHO cells
T4 sequence (P34972 whole entry): as above

[3] = [3H]WIN 55212-2 displacement, transfected CHO cell lysate, two replicate experiments, error = standard deviation, read-out: Ki (CB2)

T1 sequence (P21554 whole entry): as the sequence (P21554 whole entry) above

SMILES | EC50 (human CB1 receptor) | agonist character at CB1 (human CB1 receptor; functional assay) | % inhibition of control specific binding ([1]; Log[M] –5.48, 1st replicate) | % inhibition of control specific binding ([1]; Log[M] –5.48, 2nd replicate) | % inhibition of control specific binding ([1]; Log[M] –6.43, 1st replicate) | % inhibition of control specific binding ([1]; Log[M] –6.43, 2nd replicate) | % inhibition of control specific binding ([1]; Log[M] –6.91, 1st replicate) | agonist character at CB2 (human CB2 receptor; functional assay) | % inhibition of control specific binding ([2]; Log[M] –5.48, 1st replicate) | % inhibition of control specific binding ([2]; Log[M] –5.48, 2nd replicate) | % inhibition of control specific binding ([2]; Log[M] –6.43, 1st replicate) | % inhibition of control specific binding ([2]; Log[M] –6.43, 2nd replicate) | % inhibition of control specific binding ([2]; Log[M] –6.91, 1st replicate) | % inhibition of control specific binding ([2]; Log[M] –6.91, 2nd replicate) | % inhibition of control specific binding ([2]; Log[M] –7.39, 1st replicate) | % inhibition of control specific binding ([2]; Log[M] –7.39, 2nd replicate) | % inhibition of control specific binding ([2]; Log[M] –7.86, 1st replicate) | % inhibition of control specific binding ([2]; Log[M] –7.86, 2nd replicate) | nH (Hill coefficient) ([2]; SI) | Top (% inhibition of control specific binding) ([2]; SI) | further results
CCCCCc1cc(O)c2c(c1)OC(C)(C)[C@@H]1CC[C@@H](C)C[C@@H]21 [4a, (9R)-HHC] | 3.4 nM | partial agonists; also recorded: partial CB1 and CB2 receptor agonist activity | 112.10% | 113.60% | 95.20% | 100.00% | 82.50% | partial agonists; also recorded: partial CB1 and CB2 receptor agonist activity | 98.00% | 97.20% | 96.90% | 93.60% | 86.90% | 84.70% | 64.90% | 67.50% | 47.90% | 41.40% | 1.1 | 99 | selectivity for CB1 (functional assay) (human CB1 receptor): 1.8 x; increase in potency compared to 4b, CB1 (human CB1 receptor; functional assay): 17 fold; Ki [1]: 15 nM; % inhibition of control specific binding ([1]; Log[M] –6.91, 2nd replicate): 83.30%; % inhibition of control specific binding ([1]; Log[M] –7.39, 1st replicate): 50.10%; % inhibition of control specific binding ([1]; Log[M] –7.39, 2nd replicate): 52.90%; % inhibition of control specific binding ([1]; Log[M] –7.86, 1st replicate): 27.40%; % inhibition of control specific binding ([1]; Log[M] –7.86, 2nd replicate): 29.00%; nH (Hill coefficient) [1]: 1.1; Top (% inhibition of control specific binding) [1]: 111; selectivity for CB2 (functional activity) (human CB2 receptor): 0.55 x; EC50 (human CB2 receptor): 6.2 nM; increase in potency compared to 4b, CB2 (human CB2 receptor; functional assay): 9 fold; selectivity for CB2 (radioligand binding) [2]: 1.2 x; Ki [2, 3]: 13 nM
CCCCCc1cc(O)c2c(c1)OC(C)(C)[C@@H]1CC[C@H](C)C[C@@H]21 [4b, (9S)-HHC] | 57 nM | partial agonists; also recorded: partial CB1 and CB2 receptor agonist activity | 88.80% | 95.80% | 35.70% | 35.70% | 8.70% | partial agonists; also recorded: partial CB1 and CB2 receptor agonist activity | 88.30% | 88.00% | 62.60% | 61.40% | 41.60% | 41.40% | 15.80% | 16.00% | 4.40% | 6.70% | 0.7 | 102 | selectivity for CB1 (functional assay) (human CB1 receptor; CB1 versus CB2, from EC50): no significant selectivity; % inhibition of control specific binding ([1]; Log[M] –6.91, 2nd replicate): 5.50%; % inhibition of control specific binding ([1]; Log[M] –7.39, 1st replicate): –4.50%; % inhibition of control specific binding ([1]; Log[M] –7.39, 2nd replicate): 0.20%; % inhibition of control specific binding ([1]; Log[M] –7.86, 1st replicate): –9.00%; % inhibition of control specific binding ([1]; Log[M] –7.86, 2nd replicate): –6.10%; nH (Hill coefficient) [1]: 1.1; Top (% inhibition of control specific binding) [1]: 106; Ki ([1]; [3H]CP 55940 displacement, transfected Chem-1 cell lysate, two replicate experiments, error = standard deviation, read-out: Ki (CB1)): 176 nM; EC50 (human CB2 receptor): 56 nM; selectivity for CB2 (functional activity) (human CB2 receptor; from EC50 at CB1 and CB2): 1.0 x; Ki ([2]; SI, curve fitted to mean replicate values, Cheng Prusoff, read-out: Ki): 110 nM; Ki [2, 3]: 105 nM; selectivity for CB2 (radioligand binding) ([2]; from Ki at CB1 and CB2): 1.7 x
CCCCCc1cc(O)c2c(c1)OC(C)(C)[C@@H]1CCC(C)=C[C@@H]21 [compound 1, Δ^9-trans-tetrahydrocannabinol, reference compound] | – | – | – | – | – | – | – | partial agonists; also recorded: partial CB1 and CB2 receptor agonist activity | 97.00% | 96.20% | 98.10% | 98.20% | 88.60% | 89.90% | 74.30% | 67.60% | 50.30% | 51.20% | 1.0 | 100 | –

Reference: PMC10510108, “Studies Pertaining to the Emerging Cannabinoid Hexahydrocannabinol (HHC)” (ACS Chemical Biology, 2023)
